In patent US20180348208A1, “Systems And Methods For Determining The Risk Of Severe Allergic Reaction To Allergen, And The Immunological Protection Afforded By Vaccines” (FlowMetric Life Sciences, priority 2017, published 2018):

Key:
[1] = system: leukocytes and CD3+ lymphocytes; experiment: Detection of leukocyte and lymphocyte activation markers involved in allergic response by flow cytometry; type: cell-based, Human
Procedure: Human whole blood was obtained from a normal control individual and from an individual with a severe allergy to Amoxicillin. The blood was diluted 1:5 in RPMI media, then stimulated with either 50 μM Amoxicillin for 20 minutes to 1 hour at 37° C. and 5% CO2. In parallel, blood samples were treated with a buffer as a stimulation control, or with 50 μg/mL of the potent polymorphonuclear leukocyte (PMN) chemotactic factor fMLP (N-Formylmethionyl-leucyl-phenylalanine).
Following the stimulation period, blood samples were stained with fluorescently-labeled antibodies to leukocyte activation markers CD294, CD203a or lymphocyte activation markers CD71 and CD69 with the use of CD3 to identify CD3+ lymphocytes. Each of the samples were then incubated, protected from light, for a minimum of 30 minutes. Following incubation with the labeled antibodies, the samples were washed with BSA Stain Buffer. In parallel, samples were separately incubated with isotype control antibodies.
Following washing, red blood cells were lysed with 1 mL of 1× Pharm Lyse™ by incubation with this reagent for 15 minutes. Samples were centrifuged, and washed again with BSA Stain Buffer.
Samples and controls were then run through a FACS CANTO flow cytometer. The flow cytometer was calibrated, and compensation was performed according to standard requirements and procedures. Cells were suspended at a density of 1,000,000 cells per mL in a tube, and run through the flow cytometer for analysis. One hundred thousand events were collected per analysis.
Live cells were gating based on their low staining with FVS450. Lymphocytes and leukocytes were identified by their forward (FSC) and side (SSC) scatter profiles, and gated accordingly. CD+ lymphocytes were then further analyzed according to activation markers CD69 and CD71.

T cells = experiment: T cell activation detection by flow cytometry in stimulated human whole blood; type: cell-based
Procedure: Human whole blood can be obtained and diluted 1:5 in RPMI media and stimulated with 0, 20, 40, 60, 80, and 100 μg/mL (of blood) of phytohemagglutinin (PHA) for about 20 hours at 37° C. and 5% CO2. In parallel, blood samples can be treated with a buffer (no PHA) as a stimulation control. Following the stimulation period, blood samples can be stained with fluorescently-labeled antibodies to T cell markers, including CD4, CD25, CD69, and CD71. Fluorescently-labeled (FITC, APC, PE, PerCP-Cy5, and APC-Cy7) antibodies can be mixed with 100 μIL of PHA-stimulated blood samples or with unstimulated blood control samples in parallel, and each of the samples were can then be incubated, protected from light, for a minimum of 30 minutes. Following incubation with the labeled antibodies, the samples can be washed with BSA Stain Buffer. In parallel, samples can be separately incubated with isotype control antibodies. Following washing, red blood cells can be lysed with 1 mL of 1× Pharm Lyse™ by incubation with this reagent for 15 minutes. Samples can be centrifuged, and washed again with BSA Stain Buffer. All samples can be fixed and permeabilized with eBiosciences Fix and Perm solutions according to the manufacturer's instructions. FoxP3 can be added to the fixed/permeabilized samples, and the samples can be incubated for a minimum of 30 minutes. Samples can be washed with BSA Stain Buffer, and 1 μL of Violet Live/Dead is added to the samples and incubated, protected from light, for a minimum of 15 minutes. Samples and controls can be run through a FACSAria III flow cytometer. The flow cytometer can be calibrated, and compensation can be performed according to standard requirements and procedures. Cells can be suspended at a density of 1,000,000 cells per mL in a tube, and run through the flow cytometer for analysis. One hundred thousand events can be collected per analysis. T cells can be identified by their forward (FSC) and side (SSC) scatter profiles, and gated accordingly. T cells can further be analyzed according to the T cell marker profiles (Fox3, CD4, CD25, cD69, and CD71).

[2] = blood from allergic donor (highly sensitive to Amoxicillin), 50 μM, 20 minutes to 1 hour
[3] = blood from non-allergic donor, 50 μM, 20 minutes to 1 hour
[4] = human whole blood diluted 1:5 in RPMI, PHA stimulation about 20 hours at 37° C.
[5] = increasing amounts of PHA, 0 to 100 micrograms over 20 microgram increments
[6] = fMLP-stimulated blood samples, 50 μg/mL

CC1(C)S[C@@H]2[C@H](NC(=O)[C@H](N)c3ccc(O)cc3)C(=O)N2[C@H]1C(=O)O [Amoxicillin]
expression of CD69 and CD71 on CD3+ lymphocytes [1, 2]: increased expression | expression of CD294 and CD203a on leukocytes [1, 2]: increased expression | CD71 or CD69 on lymphocytes [1, 3]: did not show an increase | CD294 and CD203a on leukocytes [1, 3]: did not show an increase

Phytohemagglutinin [PHA]
stimulation of normal whole blood CD71, CD69, FoxP3 and CD25+ cells (T cells; 20-100 μg/mL PHA): stimulated | CD4 expression on the T cells (T cells; [4]): substantial increase | expression of CD25, CD69, CD71, and FoxP3 on the T cells (T cells; [4]): significant increase | level of CD69 expression on CD4+ cells (T cells; increasing amounts of PHA, 0 to 100 micrograms): enhancement | level of CD71 expression on CD4+ cells (T cells; [5]): enhancement | level of FoxP3 expression on CD4+ cells (T cells; [5]): enhancement

CSCC[C@H](NC=O)C(=O)N[C@@H](CC(C)C)C(=O)N[C@@H](Cc1ccccc1)C(=O)O [fMLP, N-Formylmethionyl-leucyl-phenylalanine]
CD294 and CD203a expression on leukocytes [1, 6]: substantial increase | expression of CD71 and CD69 on lymphocytes [1, 6]: significant increase
